Reference: the supplement of paper PMC10307832

Assays:
Experiment in all cases: relative viability (nuclei count vs DMSO), 5 days (fraction); higher = more cells survive
Elesclomol + Foretinib = compound: CN(NC(=O)CC(=O)NN(C)C(=S)c1ccccc1)C(=S)c1ccccc1 [Elesclomol] + COc1cc2c(Oc3ccc(NC(=O)C4(C(=O)Nc5ccc(F)cc5)CC4)cc3F)ccnc2cc1OCCCN1CCOCC1 [Foretinib] (partner 0.25 µM)
Method in brief: (§1)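 Cells from lung cancer lines were seeded into 1536-well plates and, one day later, dosed by pin tool. Treatments were either a single drug or a fixed dose of an anchor drug with five library-drug doses (not always all listed) in √10 steps. After 5 days, nuclei were stained in a one-step fixation (final 0.05% Triton X-100, 1% formaldehyde, 1 ug/ml Hoechst) and counted on 4× images, and relative viability is the treated-to-vehicle nuclei ratio, as the median of duplicate plates.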

Elesclomol + Crizotinib = compound: CN(NC(=O)CC(=O)NN(C)C(=S)c1ccccc1)C(=S)c1ccccc1 [Elesclomol] + C[C@@H](Oc1cc(-c2cnn(C3CCNCC3)c2)cnc1N)c1c(Cl)ccc(F)c1Cl [Crizotinib] (partner 1 µM)
Method in brief: as §1

Elesclomol + OSI-027 = compound: CN(NC(=O)CC(=O)NN(C)C(=S)c1ccccc1)C(=S)c1ccccc1 [Elesclomol] + COc1cccc2cc(-c3nc([C@H]4CC[C@H](C(=O)O)CC4)n4ncnc(N)c34)[nH]c12 [OSI-027] (partner 0.5 µM)
Method in brief: as §1

Elesclomol + Alpelisib = compound: CN(NC(=O)CC(=O)NN(C)C(=S)c1ccccc1)C(=S)c1ccccc1 [Elesclomol] + Cc1nc(NC(=O)N2CCC[C@H]2C(N)=O)sc1-c1ccnc(C(C)(C)C(F)(F)F)c1 [Alpelisib] (partner 2 µM)
Method in brief: as §1

Elesclomol + Phenformin = compound: CN(NC(=O)CC(=O)NN(C)C(=S)c1ccccc1)C(=S)c1ccccc1 [Elesclomol] + N=C(N)NC(=N)NCCc1ccccc1 [Phenformin] (partner 250 µM)
Method in brief: as §1

| Cell Line | relative viability (Elesclomol + Foretinib; first compound 0.003162 µM) | relative viability (Elesclomol + Foretinib; first compound 0.01 µM) | relative viability (Elesclomol + Foretinib; first compound 0.03162 µM) | relative viability (Elesclomol + Foretinib; first compound 0.1 µM) | relative viability (Elesclomol + Crizotinib; first compound 0.003162 µM) | relative viability (Elesclomol + Crizotinib; first compound 0.01 µM) | relative viability (Elesclomol + Crizotinib; first compound 0.03162 µM) | relative viability (Elesclomol + Crizotinib; first compound 0.1 µM) | relative viability (Elesclomol + OSI-027; first compound 0.003162 µM) | relative viability (Elesclomol + OSI-027; first compound 0.01 µM) | relative viability (Elesclomol + OSI-027; first compound 0.03162 µM) | relative viability (Elesclomol + OSI-027; first compound 0.1 µM) | relative viability (Elesclomol + Alpelisib; first compound 0.003162 µM) | relative viability (Elesclomol + Alpelisib; first compound 0.01 µM) | relative viability (Elesclomol + Alpelisib; first compound 0.03162 µM) | relative viability (Elesclomol + Alpelisib; first compound 0.1 µM) | relative viability (Elesclomol + Phenformin; first compound 0.003162 µM) | relative viability (Elesclomol + Phenformin; first compound 0.01 µM) | relative viability (Elesclomol + Phenformin; first compound 0.03162 µM) | relative viability (Elesclomol + Phenformin; first compound 0.1 µM) |
| --- | --- | --- | --- | --- | --- | --- | --- | --- | --- | --- | --- | --- | --- | --- | --- | --- | --- | --- | --- | --- |
| 201T | 0.945 | 0.671 | 0.265 | 0.265 | 1.01 | 0.976 | 0.978 | 0.99 | 0.683 | 0.587 | 0.386 | 0.369 | 0.985 | 1.02 | 1.03 | 0.964 | 0.464 | 0.428 | 0.435 | 0.385 |
| A549 | 0.886 | 0.504 | 0.0597 | 0.0242 | 0.445 | 0.239 | 0.0617 | 0.0458 |  |  |  |  | 0.731 | 0.229 | 0.0735 | 0.0217 | 0.0993 | 0.0488 | 0.0406 | 0.0078 |
| A-427 | 0.981 | 0.956 | 0.917 | 0.157 | 0.959 | 0.744 | 0.895 | 0.277 | 0.45 | 0.2 | 0.3 | 0.149 | 1.04 | 1.07 | 1.15 | 0.558 | 0.342 | 0.216 | 0.319 | 0.104 |
| ABC-1 | 0.255 | 0.221 | 0.259 | 0.215 | 0.195 | 0.136 | 0.223 | 0.289 | 0.227 | 0.19 | 0.225 | 0.196 | 0.292 | 0.313 | 0.23 | 0.256 | 0.239 | 0.22 | 0.224 | 0.17 |
| BEN | 0.493 | 0.467 | 0.296 | 0.265 | 0.803 | 0.397 | 0.304 | 0.214 | 0.301 | 0.256 | 0.27 | 0.252 | 0.873 | 0.351 | 0.338 | 0.242 | 0.264 | 0.233 | 0.259 | 0.246 |
| CAL-12T | 1.04 | 1.16 | 0.263 | 0.144 | 0.5 | 0.0867 | 0.0556 | 0.0701 | 0.504 | 0.277 | 0.139 | 0.0937 | 1.19 | 0.239 | 0.312 | 0.0757 | 0.456 | 0.159 | 0.153 | 0.0571 |
| COR-L23 | 0.977 | 0.667 | 0.418 | 0.198 | 0.633 | 0.409 | 0.341 | 0.124 | 0.757 | 0.408 | 0.254 | 0.0774 | 0.694 | 0.366 | 0.268 | 0.0856 | 0.367 | 0.187 | 0.163 | 0.053 |
| COR-L 105 | 0.985 | 0.698 | 0.44 | 0.176 | 0.787 | 0.407 | 0.288 | 0.207 | 0.667 | 0.365 | 0.27 | 0.143 | 1.11 | 0.712 | 0.409 | 0.256 | 0.417 | 0.315 | 0.289 | 0.168 |
| ChaGo-K-1 | 0.838 | 0.95 | 0.34 | 0.186 | 0.596 | 0.376 | 0.288 | 0.258 | 0.591 | 0.462 | 0.221 | 0.136 |  |  |  |  | 0.503 | 0.393 | 0.275 | 0.174 |
| EKVX | 0.779 | 0.736 | 0.398 | 0.189 | 0.741 | 0.486 | 0.376 | 0.21 | 0.767 | 0.457 | 0.329 | 0.185 | 0.857 | 0.369 | 0.328 | 0.174 | 0.219 | 0.225 | 0.201 | 0.172 |
| EMC-BAC-2 | 1.1 | 0.877 | 0.784 | 0.392 | 0.762 | 0.718 | 0.698 | 0.406 | 0.408 | 0.225 | 0.352 | 0.176 | 0.743 | 0.649 | 0.616 | 0.389 | 0.552 | 0.372 | 0.414 | 0.266 |
| EPLC-272H | 0.67 |  | 0.672 | 0.0988 | 1.03 |  | 0.837 | 0.135 | 0.295 |  | 0.304 | 0.138 | 1.07 |  | 0.861 | 0.249 | 0.293 |  | 0.291 | 0.172 |
| H3255 | 0.765 | 0.884 | 0.57 | 0.398 | 0.967 | 0.459 | 0.377 | 0.409 | 0.538 | 0.537 | 0.489 | 0.421 | 0.721 | 0.473 | 0.348 | 0.309 | 0.312 | 0.338 | 0.366 | 0.313 |
| HARA | 0.875 | 0.878 | 0.691 | 0.238 | 1.06 | 0.799 | 0.987 | 0.368 | 0.524 | 0.211 | 0.31 | 0.0896 | 0.803 | 0.687 | 0.944 | 0.17 | 0.506 | 0.413 | 0.475 | 0.169 |
| HCC-15 | 0.946 | 0.857 | 0.355 | 0.171 | 0.753 | 0.667 | 0.556 | 0.259 | 0.727 | 0.412 | 0.276 | 0.0961 | 0.931 | 0.645 | 0.559 | 0.236 | 0.452 | 0.438 | 0.335 | 0.231 |
| HCC-44 |  |  |  |  | 0.767 | 0.73 | 0.808 | 0.457 | 0.636 | 0.198 | 0.351 | 0.11 | 0.812 | 0.723 | 0.768 | 0.371 | 0.375 | 0.148 | 0.091 | 0.0922 |
| HCC-78 | 0.516 | 0.574 | 0.548 | 0.583 | 0.356 | 0.325 | 0.326 | 0.336 | 0.356 | 0.399 | 0.364 | 0.322 | 0.27 | 0.354 | 0.325 | 0.307 | 0.631 | 0.758 | 0.539 | 0.615 |
| HCC-366 | 0.893 | 0.945 | 0.899 | 0.0283 | 0.566 | 0.616 | 0.112 | 0.0109 | 1.05 | 0.139 | 0.823 | 0.0338 | 0.437 | 0.491 | 0.359 | 0.0118 | 0.611 | 0.562 | 0.436 | 0.0349 |
| HCC-827 | 0.991 | 0.913 | 1.12 | 0.683 | 0.965 | 0.94 | 0.96 | 0.675 | 0.741 | 0.758 | 0.722 | 0.532 | 0.98 | 1.01 | 0.975 | 0.657 | 0.382 | 0.402 | 0.371 | 0.393 |
| HOP-62 | 1.12 | 0.948 | 0.677 | 0.349 | 0.952 | 0.916 | 0.919 | 0.256 | 0.823 | 0.717 | 0.701 | 0.316 | 1.05 | 0.712 | 0.797 | 0.113 | 0.629 | 0.508 | 0.353 | 0.176 |
| LC-2-ad | 0.697 | 0.411 | 0.267 | 0.286 | 0.423 | 0.251 | 0.194 | 0.238 | 0.52 | 0.231 | 0.273 | 0.276 | 0.85 | 0.495 | 0.111 | 0.116 | 0.514 | 0.271 | 0.269 | 0.331 |
| LCLC-97TM1 | 0.986 | 0.952 | 0.909 | 0.418 | 0.283 | 0.253 | 0.319 | 0.0642 | 0.549 | 0.164 | 0.49 | 0.15 | 0.216 | 0.211 | 0.167 | 0.104 | 0.369 | 0.168 | 0.422 | 0.387 |
| LCLC-103H | 0.771 | 0.768 | 0.862 | 0.487 | 0.948 | 0.937 | 0.993 | 1.02 | 0.461 | 0.409 | 0.463 | 0.237 | 1.17 | 0.883 | 1.02 | 0.955 | 0.355 | 0.275 | 0.384 | 0.292 |
| NCI-H522 |  |  |  |  |  |  |  |  | 0.716 | 0.62 | 0.634 | 0.457 |  |  |  |  | 0.681 | 0.736 | 0.668 | 0.549 |
| NCI-H1395 | 1.06 | 0.665 | 0.332 | 0.324 |  |  |  |  | 0.706 | 0.435 | 0.398 | 0.227 | 0.999 | 0.571 | 0.252 | 0.259 | 0.45 | 0.364 | 0.296 | 0.27 |
| NCI-H1650 | 0.525 | 0.306 | 0.132 | 0.136 | 0.325 | 0.221 | 0.255 | 0.122 | 0.221 | 0.201 | 0.151 | 0.132 |  |  |  |  | 0.315 | 0.211 | 0.173 | 0.133 |
| NCI-H1703 | 0.26 | 0.207 | 0.129 | 0.133 | 0.151 | 0.137 | 0.0928 | 0.0853 |  |  |  |  | 0.225 | 0.135 | 0.0986 | 0.0874 |  |  |  |  |
| NCI-H1792 |  |  |  |  | 0.939 | 0.945 | 1 | 1.01 | 0.724 | 0.547 | 0.67 | 0.61 | 0.621 | 0.505 | 0.718 | 0.858 | 0.342 |  | 0.339 | 0.118 |
| NCI-H1793 | 0.613 | 0.618 | 0.658 | 0.193 |  |  |  |  | 0.276 | 0.197 | 0.262 | 0.228 | 0.759 | 0.654 | 0.768 | 0.164 | 0.302 | 0.35 | 0.335 | 0.247 |
| NCI-H2342 | 1.08 | 0.915 | 0.437 | 0.344 |  |  |  |  | 0.648 | 0.583 | 0.395 | 0.301 |  |  |  |  | 0.482 | 0.596 | 0.355 | 0.292 |
